System: GLP-1R-expressing HEK293 cells (phosphoproteome)
Assay: Phosphoproteomics time course (5, 15, 30, 60 min) in GLP-1R-expressing cells
Format: cell-based, human
Description: P values were calculated by a two-sided unpaired t-test.
HEK293 cells (350,000 cells/mL) were transfected in suspension using 3 μg of linear PEI (MW 25,000) per 1 μg of plasmid DNA and seeded onto poly-D-lysine-coated 60 mm dishes at a density of 1,750,000 cells per dish. After a 24-h incubation, cells were washed twice with PBS and placed in starvation media (DMEM with penicillin/streptomycin). After a 48-h incubation, cells were washed twice with HBSS and maintained in the same buffer. […] Cell extracts were prepared as previously described[64]–[66]. In short, 200 μL of the lysis buffer preheated at 95 °C (4% sodium dodecyl sulfate in 50 mM Tris adjusted to pH 8.5) was added to the cells. The samples were then denatured at 95 °C for 10 min, placed on ice and then sonicated using a probe sonicator (3 sec on, 3 sec off pulse, 1 min, 30% amplitude) (Branson). Lysate protein concentration was determined using the Pierce bicinchoninic acid assay kit (Thermo Fisher Scientific) according to the manufacturer’s instructions. The lysates were reduced using 5 mM dithiothreitol for 1 h at room temperature and alkylated using 15 mM iodoacetamide for 1 h at room temperature in the dark. Proteins were precipitated and digested on beads using MagReSyn Amine magnetic beads (ReSyn Biosciences) according to the manufacturer’s instructions. Protein digestion was conducted overnight at 37 °C with lysyl endopeptidase (LysC, Wako) (1:150 LysC/protein, w/w) and trypsin (1:300 trypsin/protein, w/w). 20% TFA, 2 M glycolic acid in 80% ACN were added to the samples at a 1:1 ratio for phosphopeptide enrichment using MagReSyn TiO2 magnetic beads (ReSyn Biosciences) according to the manufacturer’s instructions. The enriched phosphopeptides were dried overnight in a SpeedVac, resuspended into 5% formic acid (FA), desalted using StageTip (Thermo Fisher Scientific) according to the manufacturer’s instructions and dried in a SpeedVac. The experiment was performed in biological triplicates.
All parameters and settings regarding the acquisition of the proteomics data can be found in Supplementary Data 11, 12. For data acquisition, the instrument was set to peptide mode, with a trapping pressure set as low (2mTorr). An EASY-Spray Source (Thermo Fisher Scientific) was used and the column temperature was maintained with the integrated, temperature-controlled heater at 55 °C throughout the experiment. For the data presented in Fig. 5d, the column was heated at 50 °C following the manufacturer’s instructions (IonOpticks).
Acquired raw files were converted to mzML format by MSConvert (version 3.0.21258)[67] applying peak picking of the mass spectra with the vendor-provided algorithm (Thermo Fisher Scientific). The mzML files were analyzed using the FragPipe GUI v18 for both library and DIA search. […] Trypsin with up to 2 missed cleavages was set as digestion enzyme, oxidation of methionine, acetylation of the N-terminus and phosphorylation on serine, threonine and tyrosine (maximal occurrence was set to three) were set as variable modifications. Carbamidomethylation of cysteine residues was set as a fixed modification. Peptide length was restricted to 7 to 50 amino acids, and 500 to 5000 Da. The precursor tolerance was set to ±20 ppm, fragment mass tolerance to 20 ppm and MSBooster was enabled. The resulting peptide-spectrum matches were adjusted to a 1% false discovery rate with Percolator[69] as part of the Philosopher toolkit (v4.4)[70] and converted to a spectra library. DIA files were analyzed by DIA-NN 1.8.1[71], [72] using the previously generated library and monitor-command mode. Peptide quantification was performed based on the fragment elution profiles from the MS2 level (area under the curve).
All further data processing was performed in R (version 4.2.1). Only phosphopeptides with a localization score of at least 0.75 were considered for further analysis. […]

[1] = 15min, relative to time-matched vehicle condition, p.value […], passed.all.criteria 0
[2] = 60min, relative to time-matched vehicle condition, p.value […], passed.all.criteria 0

## N#Cc1ccc(COc2cccc(C3CCN(Cc4nc5ccc(C(=O)O)cc5n4C[C@@H]4CCO4)CC3)n2)c(F)c1 [Danuglipron]
1 μM
  regulation of RAB1B and α-synuclein phosphorylation, in words: significantly regulated by danuglipron
1 μM, 30 min
  number of phosphopeptides overlapping between danuglipron and semaglutide treatments: 8
1 μM, 30 min, drug-specific, vs vehicle
  number of significantly altered phosphopeptides: 220
5min, repA
  Normalized phosphoproteomics data, ESYT2 S691 (A0FGR8): 19.6049
  Normalized phosphoproteomics data, HMX3 S60 (A6NHT5): 20.3906
  Normalized phosphoproteomics data, HNRNPA1L3 Y250 (A0A2R8Y4L2): 20.6785
  Normalized phosphoproteomics data, POM121C T710 (A8CG34): 20.0234
  Normalized phosphoproteomics data, SBNO1 S794 (A3KN83): 17.9318
5min, repB
  Normalized phosphoproteomics data, ESYT2 S691 (A0FGR8): 19.6976
  Normalized phosphoproteomics data, HMX3 S60 (A6NHT5): 20.283
  Normalized phosphoproteomics data, HNRNPA1L3 Y250 (A0A2R8Y4L2): 20.3164
  Normalized phosphoproteomics data, POM121C T710 (A8CG34): 20.7371
  Normalized phosphoproteomics data, SBNO1 S794 (A3KN83): 18.211
5min, repC
  Normalized phosphoproteomics data, ESYT2 S691 (A0FGR8): 21.1682
  Normalized phosphoproteomics data, HMX3 S60 (A6NHT5): 19.9991
  Normalized phosphoproteomics data, HNRNPA1L3 Y250 (A0A2R8Y4L2): 20.6414
  Normalized phosphoproteomics data, POM121C T710 (A8CG34): 20.3991
  Normalized phosphoproteomics data, SBNO1 S794 (A3KN83): 18.5685
5min, relative to time-matched vehicle condition, p.value 0.0181801, passed.all.criteria 0
  log2.foldchange, FOXK2 S30 (Q01167): 0.5529
5min, relative to time-matched vehicle condition, p.value 0.0905175, passed.all.criteria 0
  log2.foldchange, EIF3J S11 (O75822): -0.3791
5min, relative to time-matched vehicle condition, p.value 0.889419, passed.all.criteria 0
  log2.foldchange, SCFD1 S14 (Q8WVM8): 0.04613
5min, relative to time-matched vehicle condition, p.value 0.907346, passed.all.criteria 0
  log2.foldchange, CABLES2 T26;S27 (Q9BTV7): 0.07188
5min, relative to time-matched vehicle condition, p.value […], passed.all.criteria 0
  log2.foldchange, POLE4 S25 (Q9NR33): 0.5824
15min, repA
  Normalized phosphoproteomics data, ESYT2 S691 (A0FGR8): 18.6451
  Normalized phosphoproteomics data, HMX3 S60 (A6NHT5): 20.5059
  Normalized phosphoproteomics data, HNRNPA1L3 Y250 (A0A2R8Y4L2): 20.4577
  Normalized phosphoproteomics data, POM121C T710 (A8CG34): 20.5017
  Normalized phosphoproteomics data, SBNO1 S794 (A3KN83): 18.6084
15min, repB
  Normalized phosphoproteomics data, ESYT2 S691 (A0FGR8): 18.4413
  Normalized phosphoproteomics data, HMX3 S60 (A6NHT5): 22.3446
  Normalized phosphoproteomics data, HNRNPA1L3 Y250 (A0A2R8Y4L2): 20.4067
  Normalized phosphoproteomics data, POM121C T710 (A8CG34): 18.6564
  Normalized phosphoproteomics data, SBNO1 S794 (A3KN83): 17.9968
15min, repC
  Normalized phosphoproteomics data, ESYT2 S691 (A0FGR8): 20.8902
  Normalized phosphoproteomics data, HMX3 S60 (A6NHT5): 20.8902
  Normalized phosphoproteomics data, HNRNPA1L3 Y250 (A0A2R8Y4L2): 20.9108
  Normalized phosphoproteomics data, POM121C T710 (A8CG34): 19.3031
  Normalized phosphoproteomics data, SBNO1 S794 (A3KN83): 18.3915
15min, relative to time-matched vehicle condition, p.value 0.0462694, passed.all.criteria 0
  log2.foldchange, EIF3J S11 (O75822): 0.3639
15min, relative to time-matched vehicle condition, p.value 0.844107, passed.all.criteria 0
  log2.foldchange, SCFD1 S14 (Q8WVM8): 0.06372
[1]
  log2.foldchange, CABLES2 T26;S27 (Q9BTV7): 0.288
  log2.foldchange, FOXK2 S30 (Q01167): 0.1878
  log2.foldchange, POLE4 S25 (Q9NR33): -0.08464
30min, repA
  Normalized phosphoproteomics data, ESYT2 S691 (A0FGR8): 21.4861
  Normalized phosphoproteomics data, HMX3 S60 (A6NHT5): 20.1311
  Normalized phosphoproteomics data, HNRNPA1L3 Y250 (A0A2R8Y4L2): 20.8036
  Normalized phosphoproteomics data, POM121C T710 (A8CG34): 20.7324
  Normalized phosphoproteomics data, SBNO1 S794 (A3KN83): 18.5741
30min, repB
  Normalized phosphoproteomics data, ESYT2 S691 (A0FGR8): 20.3489
  Normalized phosphoproteomics data, HMX3 S60 (A6NHT5): 20.2063
  Normalized phosphoproteomics data, HNRNPA1L3 Y250 (A0A2R8Y4L2): 19.9638
  Normalized phosphoproteomics data, POM121C T710 (A8CG34): 20.3008
  Normalized phosphoproteomics data, SBNO1 S794 (A3KN83): 18.1584
30min, repC
  Normalized phosphoproteomics data, ESYT2 S691 (A0FGR8): 19.608
  Normalized phosphoproteomics data, HMX3 S60 (A6NHT5): 21.342
  Normalized phosphoproteomics data, HNRNPA1L3 Y250 (A0A2R8Y4L2): 21.4798
  Normalized phosphoproteomics data, POM121C T710 (A8CG34): 19.571
  Normalized phosphoproteomics data, SBNO1 S794 (A3KN83): 18.2269
30min, relative to time-matched vehicle condition, p.value 0.0332159, passed.all.criteria 0
  log2.foldchange, POLE4 S25 (Q9NR33): 0.4522
30min, relative to time-matched vehicle condition, p.value 0.0661459, passed.all.criteria 0
  log2.foldchange, CABLES2 T26;S27 (Q9BTV7): -0.4521
30min, relative to time-matched vehicle condition, p.value 0.177246, passed.all.criteria 0
  log2.foldchange, TRAF2 T7;S11 (Q12933): 1.124
30min, relative to time-matched vehicle condition, p.value 0.184134, passed.all.criteria 0
  log2.foldchange, FOXK2 T13 (Q01167): -0.3505
30min, relative to time-matched vehicle condition, p.value […], passed.all.criteria 0
  log2.foldchange, SCFD1 S14 (Q8WVM8): -0.2911
60min, repA
  Normalized phosphoproteomics data, ESYT2 S691 (A0FGR8): 20.822
  Normalized phosphoproteomics data, HMX3 S60 (A6NHT5): 21.3332
  Normalized phosphoproteomics data, HNRNPA1L3 Y250 (A0A2R8Y4L2): 20.6441
  Normalized phosphoproteomics data, POM121C T710 (A8CG34): 20.5636
  Normalized phosphoproteomics data, SBNO1 S794 (A3KN83): 19.2753
60min, repB
  Normalized phosphoproteomics data, ESYT2 S691 (A0FGR8): 21.3269
  Normalized phosphoproteomics data, HMX3 S60 (A6NHT5): 22.1586
  Normalized phosphoproteomics data, HNRNPA1L3 Y250 (A0A2R8Y4L2): 20.7268
  Normalized phosphoproteomics data, POM121C T710 (A8CG34): 20.6117
  Normalized phosphoproteomics data, SBNO1 S794 (A3KN83): 18.9035
60min, repC
  Normalized phosphoproteomics data, ESYT2 S691 (A0FGR8): 21.6663
  Normalized phosphoproteomics data, HMX3 S60 (A6NHT5): 20.1861
  Normalized phosphoproteomics data, HNRNPA1L3 Y250 (A0A2R8Y4L2): 20.5504
  Normalized phosphoproteomics data, POM121C T710 (A8CG34): 19.5289
  Normalized phosphoproteomics data, SBNO1 S794 (A3KN83): 18.62
60min, relative to time-matched vehicle condition, p.value 0.629383, passed.all.criteria 0
  log2.foldchange, POLE4 S25 (Q9NR33): 0.05873
60min, relative to time-matched vehicle condition, p.value 0.819487, passed.all.criteria 0
  log2.foldchange, SCFD1 S14 (Q8WVM8): -0.06624
[2]
  log2.foldchange, CABLES2 T26;S27 (Q9BTV7): -0.3341
  log2.foldchange, EIF3J S11 (O75822): -0.413
  log2.foldchange, TRAF2 T7;S11 (Q12933): 0.4682
